Experimental data reported in PubChem BioAssay AID248 (DTP/NCI, 2004).
Several values for one entry are separate records, joined by “and”; a condition that tells them apart may be missing. Equal values may be shown once. Toxic doses and inconclusive results are not listed. Rule as the data show it: active = T/C of 150% or more; inactive = T/C below 125%.

Test system: L1210 leukemia ip in BDF1 mice, survival T/C
Experiment: NCI In Vivo Anticancer Drug Screen. Data for tumor model L1210 Leukemia (intraperitoneal) in B6D2F1 (BDF1) mice
Conditions: endpoint: mean survival time, higher = longer survival
Summary of the method: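 Transplanted-tumor mice were given test agent; controls received vehicle only. Survival readings from the two groups were divided (treated over control).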

[1] = dose: 100.0 mg/kg/injection, schedule: Q01DX009 (ip), vehicle: saline with Tween-80
[2] = dose: 200.0 mg/kg/injection, schedule: Q01DX009 (ip), vehicle: saline with Tween-80
[3] = dose: 400.0 mg/kg/injection, schedule: Q01DX009 (ip), vehicle: saline with Tween-80
[4] = dose: 100.0 mg/kg/injection, schedule: Q04DX003 (ip), vehicle: saline
[5] = dose: 50.0 mg/kg/injection, schedule: Q01DX009 (ip), vehicle: saline

Measured: T/C

O=c1[nH]cnc2ncn(Cc3ccccc3)c12
inactive: dose: 12.5 mg/kg/injection, schedule: Q04DX002 (ip), vehicle: Klucel (hydroxypropylcellulose) (HPC) 115 % of control | dose: 25.0 mg/kg/injection, schedule: Q04DX002 (ip), vehicle: Klucel (hydroxypropylcellulose) (HPC) 88 % of control | dose: 50.0 mg/kg/injection, schedule: Q04DX002 (ip), vehicle: Klucel (hydroxypropylcellulose) (HPC) 102 % of control

CC(C)CC([NH-])C(=O)O.CC(C)CC([NH-])C(=O)O.CC(C)CC([NH-])C(=O)O.[Co+3] (stereo not drawn)
inactive: dose: 12.5 mg/kg/injection, schedule: Q01DX009 (ip), vehicle: water 106 % of control | dose: 25.0 mg/kg/injection, schedule: Q01DX009 (ip), vehicle: water 95 % of control | dose: 50.0 mg/kg/injection, schedule: Q01DX009 (ip), vehicle: water 98 % of control and 104 % of control | dose: 100.0 mg/kg/injection, schedule: Q01DX009 (ip), vehicle: water 117 % of control | dose: 100.0 mg/kg/injection, schedule: Q04DX003 (ip), vehicle: water 107 % of control and 98 % of control | dose: 200.0 mg/kg/injection, schedule: Q01DX009 (ip), vehicle: water 111 % of control | dose: 200.0 mg/kg/injection, schedule: Q04DX003 (ip), vehicle: water 110 % of control and 112 % of control | dose: 400.0 mg/kg/injection, schedule: Q04DX003 (ip), vehicle: water 102 % of control

Cc1ccc2c(c1)C(c1ccccc1)(c1ccccc1)OC2=O
inactive: [1] 98 % of control | [2] 98 % of control | [3] 103 % of control

COc1ccc(CSC(=S)Nc2ccc(Cl)c(Cl)c2)cc1OC
inactive: dose: 37.5 mg/kg/injection, schedule: Q04DX003 (ip), vehicle: saline 101 % of control | dose: 75.0 mg/kg/injection, schedule: Q04DX003 (ip), vehicle: saline 93 % of control | dose: 150.0 mg/kg/injection, schedule: Q04DX003 (ip), vehicle: saline 101 % of control

O=[N+]([O-])c1ccc(C2N=C(c3ccccc3)CS2(=O)=O)cc1 (stereo not drawn)
inactive: [4] 97 % of control | dose: 200.0 mg/kg/injection, schedule: Q04DX003 (ip), vehicle: saline 95 % of control | dose: 400.0 mg/kg/injection, schedule: Q04DX003 (ip), vehicle: saline 93 % of control

CN(C)CC/C=C1/c2ccccc2COc2ccccc21
inactive: dose: 6.12 mg/kg/injection, schedule: Q01DX001 (ip), vehicle: water 111 % of control | dose: 6.25 mg/kg/injection, schedule: Q01DX009 (ip), vehicle: saline 103 % of control | dose: 12.5 mg/kg/injection, schedule: Q01DX001 (ip), vehicle: water 113 % of control | dose: 12.5 mg/kg/injection, schedule: Q01DX009 (ip), vehicle: saline 107 % of control | dose: 25.0 mg/kg/injection, schedule: Q01DX001 (ip), vehicle: water 103 % of control | dose: 25.0 mg/kg/injection, schedule: Q01DX009 (ip), vehicle: saline 101 % of control | dose: 25.0 mg/kg/injection, schedule: Q04DX003 (ip), vehicle: saline 109 % of control | [5] 113 % of control | dose: 50.0 mg/kg/injection, schedule: Q04DX003 (ip), vehicle: saline 101 % of control | [4] 93 % of control

Cc1ccc(NC(=O)c2ccc(Cl)cc2)cc1
inactive: dose: 100.0 mg/kg/injection, schedule: Q01DX009 (ip), vehicle: Klucel (hydroxypropylcellulose) (HPC) 95 % of control | dose: 100.0 mg/kg/injection, schedule: Q04DX003 (ip), vehicle: Klucel (hydroxypropylcellulose) (HPC) 97 % of control | dose: 200.0 mg/kg/injection, schedule: Q01DX009 (ip), vehicle: Klucel (hydroxypropylcellulose) (HPC) 99 % of control | dose: 200.0 mg/kg/injection, schedule: Q04DX003 (ip), vehicle: Klucel (hydroxypropylcellulose) (HPC) 103 % of control | dose: 400.0 mg/kg/injection, schedule: Q01DX009 (ip), vehicle: Klucel (hydroxypropylcellulose) (HPC) 90 % of control | dose: 400.0 mg/kg/injection, schedule: Q04DX003 (ip), vehicle: Klucel (hydroxypropylcellulose) (HPC) 103 % of control

CC1CC(C)(C)N=C(c2cccc(Br)c2)O1 (stereo not drawn)
inactive: [1] 103 % of control | [2] 103 % of control | [3] 92 % of control

C=C[CH2][Sn]([Br])([Br])[Br]
inactive: [5] 115 % of control | dose: 100.0 mg/kg/injection, schedule: Q01DX009 (ip), vehicle: saline 95 % of control | dose: 200.0 mg/kg/injection, schedule: Q01DX009 (ip), vehicle: saline 86 % of control

[Cu+].[S-]c1ccsc1
inactive: dose: 10.0 mg/kg/injection, schedule: Q01DX001 (ip), vehicle: carboxymethylcellulose (CMC) 95 % of control | dose: 20.0 mg/kg/injection, schedule: Q01DX001 (ip), vehicle: carboxymethylcellulose (CMC) 93 % of control | dose: 40.0 mg/kg/injection, schedule: Q01DX001 (ip), vehicle: carboxymethylcellulose (CMC) 90 % of control | dose: 80.0 mg/kg/injection, schedule: Q01DX001 (ip), vehicle: carboxymethylcellulose (CMC) 106 % of control

CC(=O)Nc1ccc(S(=O)(=O)Nc2cc(C)c(C)cc2C)cc1
inactive: dose: 100.0 mg/kg/injection, schedule: Q04DX002 (ip), vehicle: Klucel (hydroxypropylcellulose) (HPC) 103 % of control | dose: 200.0 mg/kg/injection, schedule: Q04DX002 (ip), vehicle: Klucel (hydroxypropylcellulose) (HPC) 91 % of control
